What was measured:
Kv1.3 potassium channel = biological target: T1, Kv1.3 potassium channel (Homo sapiens, UniProt P22001); assay: Kv1.3 potassium channel blocker activity, automated whole-cell patch clamp (Patchliner); format: cell-based; conditions: CHO-K1 cells stably expressing Kv1.3; whole cell current inhibition; read-out: Kv1.3_IC50
T1 construct: expressed in transfected cells
How it was run: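 Peak-current block was recorded on stable Kv1.3 CHO-K1 cells by automated patch clamp, stepping from a −90 mV holding potential to +40 mV for 100 ms at 0.1 Hz with 10 s breaks between trains. Online P/4 leak subtraction, 10 kHz sampling; compound exposure under 10 s per train.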

hERG channel = hERG channel (Homo sapiens, UniProt Q12809); assay: hERG electrophysiology, automated whole-cell patch clamp (Patchliner)
Sequence of hERG channel (Q12809 whole entry): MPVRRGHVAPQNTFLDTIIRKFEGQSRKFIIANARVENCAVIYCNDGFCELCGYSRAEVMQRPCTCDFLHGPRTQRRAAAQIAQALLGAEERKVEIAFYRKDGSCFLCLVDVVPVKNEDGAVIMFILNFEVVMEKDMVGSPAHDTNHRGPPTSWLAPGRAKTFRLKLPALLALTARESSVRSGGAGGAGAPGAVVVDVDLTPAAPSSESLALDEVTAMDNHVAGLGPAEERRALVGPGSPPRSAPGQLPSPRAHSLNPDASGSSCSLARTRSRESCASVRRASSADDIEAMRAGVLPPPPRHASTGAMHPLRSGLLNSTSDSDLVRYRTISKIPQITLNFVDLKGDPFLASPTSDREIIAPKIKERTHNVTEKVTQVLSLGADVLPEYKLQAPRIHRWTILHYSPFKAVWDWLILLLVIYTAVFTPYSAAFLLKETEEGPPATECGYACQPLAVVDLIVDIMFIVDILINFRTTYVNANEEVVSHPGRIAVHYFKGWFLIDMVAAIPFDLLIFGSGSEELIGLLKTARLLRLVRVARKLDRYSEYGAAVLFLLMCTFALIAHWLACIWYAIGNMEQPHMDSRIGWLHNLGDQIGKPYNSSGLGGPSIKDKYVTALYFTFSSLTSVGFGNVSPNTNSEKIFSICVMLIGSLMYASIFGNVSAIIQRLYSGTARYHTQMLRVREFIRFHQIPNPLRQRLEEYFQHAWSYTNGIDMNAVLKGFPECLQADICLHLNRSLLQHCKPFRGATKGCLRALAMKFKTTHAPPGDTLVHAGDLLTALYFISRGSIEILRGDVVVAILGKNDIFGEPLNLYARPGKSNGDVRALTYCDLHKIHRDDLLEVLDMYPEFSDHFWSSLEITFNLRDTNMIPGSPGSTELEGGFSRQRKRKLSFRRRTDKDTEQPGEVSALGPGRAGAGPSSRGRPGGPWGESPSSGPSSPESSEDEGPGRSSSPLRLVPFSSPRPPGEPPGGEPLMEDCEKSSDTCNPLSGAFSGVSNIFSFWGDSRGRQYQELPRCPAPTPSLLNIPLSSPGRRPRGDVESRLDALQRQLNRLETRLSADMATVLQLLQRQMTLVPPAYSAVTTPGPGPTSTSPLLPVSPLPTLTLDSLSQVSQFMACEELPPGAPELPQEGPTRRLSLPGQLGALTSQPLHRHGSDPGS
Procedure: CHO-K1 cells stably expressing hERG were grown in Ham's F-12 Medium with Glutamine containing 10% heat-inactivated FBS, 1% Penicillin/Streptomycin, Hygromycin (100 μg/ml) and G418 (100 μg/ml). Cells were grown in culture flasks at 37° C. in a 5% CO2-humidified incubator.
The cells were bathed in an extracellular solution containing 140 mM NaCl, 4 mM KCl, 2 mM CaCl2), 1 mM MgCl2, 5 mM Glucose, 10 mM HEPES; pH adjusted to 7.4 with NaOH; 295-305 mOsm. The internal solution contained 50 mM KCl, 10 mM NaCl, 60 mM KF, 20 mM EGTA, 10 mM HEPES; pH adjusted to 7.2 with KOH; 285 mOsm. All compounds were dissolved in DMSO at 30 mM. Compound stock solutions were freshly diluted with external solution to concentrations of 30 nM, 100 nM, 300 nM, 1 μM, 3 μM, 10 μM, 30 μM and 100 μM. The highest content of DMSO (0.3%) was present in 100 μM.
The voltage protocol (see Table B) was designed to simulate voltage changes during a cardiac action potential with a 300 ms depolarization to +20 mV (analogous to the plateau phase of the cardiac action potential), a repolarization for 300 ms to −50 mV (inducing a tail current) and a final step to the holding potential of −80 mV. The pulse frequency was 0.3 Hz. Control (compound-free) and compound pulse trains for each compound concentration applied contained 70 pulses.
Whole cell current recordings and compound application were enabled by means of an automated patch clamp platform Patchliner (Nanion). EPC 10 patch clamp amplifier (HEKA) along with Patchmaster software (HEKA Elektronik Dr. Schulze GmbH) was used for data acquisition. Data were sampled at 10 kHz without filtering. Increasing compound concentrations were applied consecutively to the same cell without washouts in between.
AUC and PEAK values were obtained with Patchmaster (HEKA Elektronik Dr. Schulze GmbH). To determine IC50 the last single pulse in the pulse train corresponding to a given compound concentration was used. Obtained AUC and PEAK values in the presence of compound were normalized to control values in the absence of compound. Using Origin (OridinLab), IC50 was derived from data fit to Hill equation: Icompound/Icontrol=(100−A)/(1+([compound]/IC50)nH)+A, where IC50 is the concentration at which current inhibition is half-maximal, [compound] is the applied compound concentration, A is the fraction of current that is not blocked and nH is the Hill coefficient.

T1 sequence (P22001 whole entry): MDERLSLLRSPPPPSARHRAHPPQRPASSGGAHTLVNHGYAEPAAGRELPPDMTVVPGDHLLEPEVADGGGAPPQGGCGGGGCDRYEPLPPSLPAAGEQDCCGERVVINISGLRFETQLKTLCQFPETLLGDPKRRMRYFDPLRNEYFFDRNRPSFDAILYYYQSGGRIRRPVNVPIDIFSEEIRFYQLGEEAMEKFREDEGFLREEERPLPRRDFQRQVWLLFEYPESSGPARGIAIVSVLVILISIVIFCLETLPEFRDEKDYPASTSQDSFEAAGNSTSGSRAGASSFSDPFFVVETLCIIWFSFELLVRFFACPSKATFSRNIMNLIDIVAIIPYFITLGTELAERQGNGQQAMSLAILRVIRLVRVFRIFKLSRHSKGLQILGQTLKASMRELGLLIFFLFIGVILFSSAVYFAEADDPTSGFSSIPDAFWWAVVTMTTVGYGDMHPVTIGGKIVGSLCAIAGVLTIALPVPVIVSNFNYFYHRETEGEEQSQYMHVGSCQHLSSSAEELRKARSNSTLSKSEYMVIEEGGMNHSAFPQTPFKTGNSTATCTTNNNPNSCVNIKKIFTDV

SMILES | IC50 (Kv1.3 potassium channel) [µM] | IC50 (hERG channel) [µM]
C[C@@H](O)[C@H](O)C(=O)N1CCC([C@@H](N)c2cc(Cl)c(Cl)cc2O)CC1 [Compound 208, 1-(4-((R)-amino(4,5-dichloro-2-hydroxyphenyl)methyl)piperidin-1-yl)-2,3-dihydroxybutan-1-one trifluoroacetic acid] | < 0.5 | > 30
N[C@@H](c1cc(Cl)c(Cl)cc1O)C1CCN(C(=O)C2CNC2)CC1 [Compound 83, 2-[(R)-amino[1-(azetidine-3-carbonyl)piperidin-4-yl]methyl]-4,5-dichlorophenol Trifluoroacetic Acid] | < 0.5 | > 30
Cn1cc(C(=O)N2CCC([C@@H](N)c3cc(Cl)c(Cl)cc3O)CC2)cn1 [Compound 203, (R)-(4-(amino(4,5-dichloro-2-hydroxyphenyl)methyl)piperidin-1-yl) (1-methyl-1H-pyrazol-4-yl)methanone] | < 0.5 | < 30
C[C@H](O)[C@H](N)C(=O)N1CCC([C@@H](N)c2cc(Cl)c(Cl)cc2O)CC1 [Compound 175, (2S,3S)-2-amino-1-[4-[(R)-amino(4,5-dichloro-2-hydroxyphenyl)methyl]piperidin-1-yl]-3-hydroxybutan-1-one bis trifluoroacetic acid] | < 0.5 | > 30
N[C@@H](c1cc(Cl)c(Cl)cc1O)C1CCN(c2ccn[nH]2)CC1 [Compound 154, 2-[(R)-amino[1-(1H-pyrazol-3-yl)piperidin-4-yl]methyl]-4,5-dichlorophenol Trifluoroacetic Acid] | < 10 | > 30
N[C@@H](c1cc(Cl)c(Cl)cc1O)C1CCN(C(=O)[C@H]2CCNC2)CC1 (single isomer, unassigned) [Compound 85] | < 0.5 | > 30
C[C@@H](N)C(=O)N1CCC(C(N)c2cc(Cl)c(Cl)cc2O)CC1 (stereo partly drawn) [Compound 54, (2R)-2-amino-1-(4-(amino(4,5-dichloro-2-hydroxyphenyl)methyl)piperidin-1-yl)propan-1-one Trifluoroacetic Acid] | < 0.5 | > 30
N[C@@H](c1cc(Cl)c(Cl)cc1O)C1CCN(S(=O)(=O)[C@H]2CCNC2)CC1 (single isomer, unassigned; isomer 2) [Compound 118] | < 0.5 | > 30
N[C@@H](c1cc(Cl)c(Cl)cc1O)C1CCN(C(=O)c2cnc(=O)[nH]c2)CC1 [Compound 277, 5-[4-[(R)-amino(4,5-dichloro-2-hydroxyphenyl)methyl]piperidine-1-carbonyl]-1H-pyrimidin-2-one trifluoroacetic acid] | < 0.5 | > 30
Nc1nc(N2CCC([C@@H](N)c3cc(Cl)c(Cl)cc3O)CC2)no1 [Compound 183, 2-[(R)-amino[1-(5-amino-1,2,4-oxadiazol-3-yl)piperidin-4-yl]methyl]-4,5-dichlorophenol] | < 0.5 | < 30
C[C@H]1C[C@H]([C@@H](N)c2cc(Cl)c(Cl)cc2O)CCN1C(=O)[C@H](O)CO [Compound 326, (2R)-1-[(2S,4R)-4-[(R)-amino(4,5-dichloro-2-hydroxyphenyl)methyl]-2-methylpiperidin-1-yl]-2,3-dihydroxypropan-1-one Trifluoroacetic Acid] | < 0.5 | > 30
N[C@@H](c1cc(Cl)c(Cl)cc1O)C1CCN(S(=O)(=O)CCO)CC1 [Compound 145, (R)-2-(amino(1-((2-hydroxyethyl)sulfonyl)piperidin-4-yl)methyl)-4,5-dichlorophenol Trifluoroacetic Acid] | < 0.5 | < 30
CC(C)C(=O)N1CCC(C(N)c2cc(Cl)c(Cl)cc2O)CC1 (stereo not shown) [Compound 43, 1-[4-[amino(4,5-dichloro-2-hydroxyphenyl)methyl]piperidin-1-yl]-2-methylpropan-1-one Trifluoroacetic Acid] | < 10 | < 30
N[C@@H](c1cc(Cl)c(Cl)cc1O)C1CCN(C(=O)c2ccn[nH]2)CC1 [Compound 136, 2-[(R)-amino[1-(1H-pyrazole-3-carbonyl)piperidin-4-yl]methyl]-4,5-dichlorophenol trifluoroacetic acid] | < 10 | > 30
N[C@@H](c1cc(Cl)c(Cl)cc1O)C1CCN(C(=O)[C@H]2COCCN2)CC1 [Compound 194, (4-((R)-amino(4,5-dichloro-2-hydroxyphenyl)methyl)piperidin-1-yl)((R)-morpholin-3-yl)methanone] | < 0.5 | > 30
N[C@@H](c1cc(Cl)c(Cl)cc1O)C1CCN(C(=O)C2CCNC(=O)C2)CC1 (stereo partly drawn) [Compound 172, 4-[4-[(R)-amino(4,5-dichloro-2-hydroxyphenyl)methyl]piperidine-1-carbonyl] piperidin-2-one trifluoroacetic acid] | < 10 | > 30
NC(=O)C(=O)N1CCC([C@@H](N)c2cc(Cl)c(Cl)cc2O)CC1 [Compound 206, 2-[4-[(R)-amino(4,5-dichloro-2-hydroxyphenyl)methyl]piperidin-1-yl]-2-oxoacetamide trifluoroacetic acid] | < 0.5 | > 30
N[C@@H](c1cc(Cl)c(Cl)cc1O)C1CCN(C(=O)c2c[nH]c3ccccc23)CC1 [Compound 204, (R)-(4-(amino(4,5-dichloro-2-hydroxyphenyl)methyl)piperidin-1-yl)(1H-indol-3-yl)methanone trifluoroacetic acid] | < 10 | < 30

SMILES | IC50 (Kv1.3 potassium channel) [µM] | IC50 (hERG channel) [µM]
NC(c1c(O)cc(Cl)c(Cl)c1F)C1CCN(C(=O)[C@H](O)CO)CC1 (stereo partly drawn) [Compound 328, (2R)-1-[4-[amino(3,4-dichloro-2-fluoro-6-hydroxyphenyl)methyl]piperidin-1-yl]-2,3-dihydroxypropan-1-one Trifluoroacetic Acid] | < 0.5 | > 30
CN(C)CC(=O)N1CCC([C@@H](N)c2cc(Cl)c(Cl)cc2O)CC1 [Compound 89, (R)-1-(4-(amino(4,5-dichloro-2-hydroxyphenyl)methyl)piperidin-1-yl)-2-(dimethylamino)ethanone] | < 0.5 | > 30
N[C@@H](c1cc(Cl)c(Cl)cc1O)C1CCN(C(=O)c2cnoc2)CC1 [Compound 205, 2-[(R)-amino[1-(1,2-oxazole-4-carbonyl)piperidin-4-yl]methyl]-4,5-dichlorophenol] | < 0.5 | > 30
O=C([C@@H]1CCNC1)N1CCC(Cc2cc(Cl)c(Cl)cc2O)CC1 [Compound 111, 4,5-dichloro-2-([1-[(3R)-pyrrolidine-3-carbonyl]piperidin-4-yl]methyl)phenol Trifluoroacetic Acid] | < 0.5 | < 30
O=C([C@@H]1CCNC1)N1CCC([C@@H](O)c2c(O)ccc(Cl)c2Cl)CC1 (single isomer, unassigned) [Compound 123, Trifluoroacetic Acid] | < 0.5 | > 30
Nc1ccnc(N2CCC([C@@H](N)c3cc(Cl)c(Cl)cc3O)CC2)c1 [Compound 150, (R)-2-(amino(1-(4-aminopyridin-2-yl)piperidin-4-yl)methyl)-4,5-dichlorophenol Trifluoroacetic Acid] | < 0.5 | < 30
C[C@H](O)C(=O)N1CCC([C@@H](N)c2cc(Cl)c(Cl)cc2O)CC1 [Compound 102, (S)-1-(4-((R)-amino(4,5-dichloro-2-hydroxyphenyl)methyl)piperidin-1-yl)-2-hydroxypropan-1-one] | < 0.5 | > 30
NC(c1c(O)ccc2ccccc12)C1CCNCC1 (stereo not shown) [Compound 34, 1-(amino(piperidin-4-yl)methyl)naphthalen-2-ol Trifluoroacetic Acid] | < 30 | > 30
Oc1ccc2ccccc2c1C(O)C1CCNCC1 (stereo not shown) [Compound 30, 1-(hydroxy(piperidin-4-yl)methyl)naphthalen-2-ol] | < 10 | > 30
C[C@@H](O)C(=O)N1CCC([C@@H](N)c2cc(Cl)c(Cl)cc2O)CC1 [Compound 105, (R)-1-(4-((R)-amino(4,5-dichloro-2-hydroxyphenyl)methyl)piperidin-1-yl)-2-hydroxypropan-1-one] | < 10 | > 30
N[C@@H](c1cc(Cl)c(Cl)cc1O)C1CCN(C(=O)COC2COC2)CC1 [Compound 192, 1-[4-[(R)-amino(4,5-dichloro-2-hydroxyphenyl)methyl]piperidin-1-yl]-2-(oxetan-3-yloxy)ethan-1-one] | < 0.5 | > 30
C[C@@](O)(CO)C(=O)N1CCC([C@@H](N)c2cc(Cl)c(Cl)cc2O)CC1 (single isomer, unassigned; isomer 1) [Compound 217] | < 10 | > 30
NC(c1cc(Cl)c(Cl)cc1O)C1CCN(c2ncco2)CC1 (stereo not shown) [Compound 74, 2-[amino[1-(1,3-oxazol-2-yl)piperidin-4-yl]methyl]-4,5-dichlorophenol] | < 10 | < 30
Cc1cc(O)c([C@H](N)C2CCN(S(=O)(=O)C3CCNC3)CC2)cc1Cl (stereo partly drawn) [Compound 236, 2-[(R)-amino[1-(pyrrolidine-3-sulfonyl)piperidin-4-yl]methyl]-4-chloro-5-methylphenol Trifluoroacetic Acid] | < 0.5 | > 30
Cc1cc(O)c([C@H](N)C2CCN(C(=O)c3cnc4nccn4c3)CC2)cc1Cl [Compound 240, 2-[(R)-amino(1-[imidazo[1,2-a]pyrimidine-6-carbonyl]piperidin-4-yl)methyl]-4-chloro-5-methylphenol Trifluoroacetic Acid] | < 0.5 | > 30
N[C@@H](c1cc(Cl)c(Cl)cc1O)C1CCN(C(=O)[C@H](O)CO)CC1 (single isomer, unassigned) [Compound 119] | < 0.5 | > 30
C[C@H](N)C(=O)N1CCC([C@@H](N)c2cc(Cl)c(Cl)cc2O)CC1 (single isomer, unassigned) [Compound 76] | < 0.5 | > 30

From patent US20230023559A1, “ARYLMETHYLENE HETEROCYCLIC COMPOUNDS AS KV1.3 POTASSIUM SHAKER CHANNEL BLOCKERS” (D. E. Shaw Research, LLC, priority 2019, published 2023)
